Test [1] addresses T1, CDK2/CycE (Homo sapiens, UniProt P24941).
T1 construct: GST; purchased ProQinase GmbH (Freiburg, Germany); host or cells: insect cells (Sf9)
Kind of test: CDK2/CycE kinase assay (TR-FRET, 10 μM ATP). The format is biochemical. As to conditions: Method 2 (2a). The text has this:
2a. CDK2/CycE Kinase Assay:
CDK2/CycE-inhibitory activity of compounds of the present invention was quantified employing the CDK2/CycE TR-FRET assay as described in the following paragraphs:
Recombinant fusion proteins of GST and human CDK2 and of GST and human CycE, expressed in insect cells (Sf9) and purified by Glutathion-Sepharose affinity chromatography, were purchased from ProQinase GmbH (Freiburg, Germany). As substrate for the kinase reaction biotinylated peptide biotin-Ttds-[…] (C-terminus in amid form) was used which can be purchased e.g. form the company JERINI Peptide Technologies (Berlin, Germany).
(§1) For the assay 50 nl of a 100 fold concentrated solution of the test compound in DMSO was pipetted into a black low volume 384 well microtiter plate (Greiner Bio-One, Frickenhausen, Germany), 2 μl of a solution of CDK2/CycE in aqueous assay buffer [50 mM Tris/HCl pH 8.0, 10 mM MgCl2, 1.0 mM dithiothreitol, 0.1 mM sodium ortho-vanadate, 0.01% (v/v) Nonidet-P40 (Sigma)] were added and the mixture was incubated for 15 min at 22° C. to allow pre-binding of the test compounds to the enzyme before the start of the kinase reaction. Then the kinase reaction was started by the addition of 3 μl of a solution of adenosine-tri-phosphate (ATP, 16.7 μM=>final conc. in the 5 μl assay volume is 10 μM) and substrate (1.25 μM=>final conc. in the 5 μl assay volume is 0.75 μM) in assay buffer and the resulting mixture was incubated for a reaction time of 25 min at 22° C. The concentration of CDK2/CycE was adjusted depending of the activity of the enzyme lot and was chosen appropriate to have the assay in the linear range, typical concentrations were in the range of 130 ng/mL The reaction was stopped by the addition of 5 μl of a solution of TR-FRET detection reagents (0.2 μM streptavidine-XL665 [Cisbio Bioassays, Codolet, France] and 1 nM anti-RB(pSer807/pSer811)-antibody from BD Pharmingen [#558389] and 1.2 nM LANCE EU-W1024 labeled anti-mouse IgG antibody [Perkin-Elmer, product no. AD0077]) in an aqueous EDTA-solution (100 mM EDTA, 0.2% (w/v) bovine serum albumin in 100 mM HEPES/NaOH pH 7.0).
(§2) The resulting mixture was incubated 1 h at 22° C. to allow the formation of complex between the phosphorylated biotinylated peptide and the detection reagents. Subsequently the amount of phosphorylated substrate was evaluated by measurement of the resonance energy transfer from the Eu-chelate to the streptavidine-XL. Therefore, the fluorescence emissions at 620 nm and 665 nm after excitation at 350 nm was measured in a TR-FRET reader, e.g. a Rubystar (BMG Labtechnologies, Offenburg, Germany) or a Viewlux (Perkin-Elmer). The ratio of the emissions at 665 nm and at 622 nm was taken as the measure for the amount of phosphorylated substrate.
A general note: In TR-FRET formats the signal depends on donor and acceptor labels being close together.

Test [2] deals with T1, CDK2/CycE. Nature of the test: CDK2/CycE high ATP kinase assay (TR-FRET, 2 mM ATP). The format is biochemical. As to conditions: Method 2b. The procedure: 2b. CDK2/CycE High ATP Kinase Assay:
CDK2/CycE-inhibitory activity of compounds of the present invention at 2 mM adenosine-tri-phosphate (ATP) was quantified employing the CDK2/CycE TR-FRET (TR-FRET=Time Resolved Fluorescence Energy Transfer) assay as described in the following paragraphs.
Recombinant fusion proteins of GST and human CDK2 and of GST and human CycE, expressed in insect cells (Sf9) and purified by Glutathion-Sepharose affinity chromatography, were purchase from ProQinase GmbH (Freiburg, Germany). As substrate for the kinase reaction biotinylated peptide biotin-Ttds-[…] (C-terminus in amid form) was used which can be purchased e.g. form the company JERINI peptide technologies (Berlin, Germany).
as §1, with “ATP (3.33 mM=>final” for “of adenosine-tri-phosphate (ATP, 16.7 μM=>final”, “2 mM)” for “10 μM)”, “15 ng/ml.” for “130 ng/mL”, “AD0077, as an alternative a Terbium-cryptate-labeled anti-mouse IgG antibody from Cisbio Bioassays can be used])” for “AD0077])”
as §2, with “350 nm were measured in” for “350 nm was measured in”

A value given as a limit tells only on which side of the number the result lay.

The term IC50 denotes the midpoint of a concentration-inhibition curve. High values mean weaker potency in that assay, low ones greater potency in that assay. With `CCOC(=O)N=S(C)(=O)Cc1ccnc(Nc2cc(-c3ccc(F)cc3OC)c(F)cn2)c1` (racemic) [Example 11, (rac)-Ethyl{[(2-{[5-fluoro-4-(4-fluoro-2-methoxyphenyl)pyridin-2-yl]amino}pyridin-4-yl)methyl](methyl)oxido-λ^6-sulfanylidene}carbamate], the IC50 at CDK2/CycE [1] was 170 nM; on CDK2/CycE [2] it was 2920 nM.

Turning to `CCOc1cc(F)ccc1-c1cc(Nc2cc(CS(C)(=O)=NC(=O)C(F)(F)F)cc(F)n2)ncc1F` (racemic) [Example 27, (rac)-N-{[(2-{[4-(2-Ethoxy-4-fluoro-phenyl)-5-fluoropyridin-2-yl]amino}-6-fluoropyridin-4-yl)methyl]-(methyl)oxido-λ^6-sulfanylidene}-2,2,2-trifluoroacetamide], the IC50 is 1200 nM on CDK2/CycE [1] and at least 20000 nM on CDK2/CycE [2]. The like results for `CCOc1cc(F)ccc1-c1cc(Nc2cc(CS(C)(=N)=O)cc(F)n2)ncc1F` (racemic) [Example 26, (rac)-4-(2-Ethoxy-4-fluorophenyl)-5-fluoro-N-{6-fluoro-4-[(S-methylsulfonimidoyl)methyl]pyridin-2-yl}pyridin-2-amine] were, in that order, 110 nM and 1200 nM. `CCOc1cc(F)ccc1-c1cc(Nc2cc(CS(C)(=N)=O)cc(F)n2)ncc1F` (single isomer, unassigned; (+)) [Example 28, (+)-4-(2-Ethoxy-4-fluorophenyl)-5-fluoro-N-{6-fluoro-4-[(S-methylsulfonimidoyl)methyl]pyridin-2-yl}pyridin-2-amine]: the IC50 against CDK2/CycE [1] was determined as 120 nM; at CDK2/CycE [2], 1170 nM.

Take `COc1cc(F)ccc1-c1cc(Nc2cc(CS(C)(=N)=O)c(Br)c(C)n2)ncc1F` (racemic) [Example 5, (rac)-5-Bromo-N-[5-fluoro-4-(4-fluoro-2-methoxyphenyl)pyridin-2-yl]-6-methyl-4-[(S-methylsulfonimidoyl)methyl]pyridin-2-amine]: the figures for the half-maximal inhibitory concentration (IC50) at CDK2/CycE [1] and on CDK2/CycE [2] were 140 nM and 1770 nM, respectively. For `COc1cc(F)ccc1-c1cc(Nc2cc(CS(C)(=N)=O)cc(C)n2)ncc1F` (single isomer, unassigned; (-)) [Example 33, (−)-5-Fluoro-4-(4-fluoro-2-methoxyphenyl)-N-{6-methyl-4-[(S-methylsulfonimidoyl)methyl]pyridin-2-yl}pyridin-2-amine], the figures for the IC50 at CDK2/CycE [1] and against CDK2/CycE [2] were 67 nM and 680 nM, respectively. With `COc1cc(F)ccc1-c1cc(Nc2cc(CS(C)(=N)=O)cc(C)n2)ncc1F` (single isomer, unassigned; (+)) [Example 32, (+)-5-Fluoro-4-(4-fluoro-2-methoxyphenyl)-N-{6-methyl-4-[(S-methylsulfonimidoyl)methyl]pyridin-2-yl}pyridin-2-amine], the IC50 on CDK2/CycE [1] turned out to be 120 nM; against CDK2/CycE [2] it was 1120 nM. As for `COc1cc(F)ccc1-c1cc(Nc2cc(CS(C)(=N)=O)cc(C(F)F)n2)ncc1F` (racemic) [Example 31, (rac)-N-{6-(Difluoromethyl)-4-[(S-methylsulfonimidoyl)methyl]pyridin-2-yl}-5-fluoro-4-(4-fluoro-2-methoxyphenyl)pyridin-2-amine], the IC50 was 10 nM against CDK2/CycE [1] and 229 nM at CDK2/CycE [2].

Take `COc1cc(F)ccc1-c1cc(Nc2cc(CS(C)(=O)=NC(C)=O)ccn2)ncc1F` (racemic) [Example 13, (rac)-N-{[(2-{[5-Fluoro-4-(4-fluoro-2-methoxyphenyl)pyridin-2-yl]amino}pyridin-4-yl)methyl](methyl)oxido-λ^6-sulfanylidene}acetamide]: the IC50 at CDK2/CycE [1] worked out at 130 nM; on CDK2/CycE [2], 3690 nM. In the case of `COc1cc(CS(C)(=N)=O)cc(Nc2cc(-c3ccc(F)cc3OC)c(F)cn2)n1` (racemic) [Example 6, (rac)-5-Fluoro-4-(4-fluoro-2-methoxyphenyl)-N-{6-methoxy-4-[(S-methylsulfonimidoyl)methyl]pyridin-2-yl}pyridin-2-amine], the figures for the IC50 at CDK2/CycE [1] and against CDK2/CycE [2] were 4 nM and 84 nM, respectively. Turning to `COc1cc(F)ccc1-c1cc(Nc2cc(CS(C)(=N)=O)ccn2)ncc1F` (single isomer, unassigned; (-)) [Example 3, (−)-5-Fluoro-4-(4-fluoro-2-methoxyphenyl)-N-{4-[(S-methylsulfonimidoyl)methyl]pyridin-2-yl}pyridin-2-amine], the IC50 against CDK2/CycE [1] was found to be 240 nM; at CDK2/CycE [2] it was 2490 nM. `COc1cc(F)ccc1-c1cc(Nc2cc(CS(C)(=N)=O)cc(F)n2)ncc1F` (racemic) [Example 17, (rac)-5-Fluoro-4-(4-fluoro-2-methoxyphenyl)-N-{6-fluoro-4-[(S-methylsulfonimidoyl)methyl]pyridin-2-yl}pyridin-2-amine]: the 50% inhibitory concentration (IC50) at CDK2/CycE [1] is 49 nM; on CDK2/CycE [2], 886 nM. On the same counts, the results for `COc1cc(F)ccc1-c1cc(Nc2cc(CS(=N)(=O)CCN)ccn2)ncc1F` (racemic) [Example 9, (rac)-N-(4-{[S-(2-Aminoethyl)sulfonimidoyl]methyl}pyridin-2-yl)-5-fluoro-4-(4-fluoro-2-methoxyphenyl)pyridin-2-amine] are 240 nM and 4230 nM. The like results for `COc1cc(F)ccc1-c1cc(Nc2cc(CS(C)(=N)=O)cc(C(F)(F)F)n2)ncc1F` (single isomer, unassigned; (-)) [Example 23, (−)-5-Fluoro-4-(4-fluoro-2-methoxyphenyl)-N-{4-[(S-methylsulfonimidoyl)methyl]-6-(trifluoromethyl)pyridin-2-yl}pyridin-2-amine] were, in that order, 22 nM and 283 nM. As to `COc1cc(F)ccc1-c1cc(Nc2cc(CS(C)(=O)=NC(=O)C(F)(F)F)cc(F)n2)ncc1F` (racemic) [Example 18, (rac)-2,2,2-Trifluoro-N-{[(2-fluoro-6-{[5-fluoro-4-(4-fluoro-2-methoxyphenyl)pyridin-2-yl]amino}pyridin-4-yl)methyl](methyl)oxido-λ^6-sulfanylidene}acetamide], half-maximal inhibition against CDK2/CycE [1] (IC50) required 39 nM.

For the origin of these results see patent US9650340B2, “5-fluoro-N-(pyridin-2-yl)pyridin-2-amine derivatives containing a sulfoximine group” (BAYER PHARMA AKTIENGESELLSCHAFT, priority 2012, dated 2017).
